The text below walks through data of patent US6953789B2, “Thiol compounds, their production and use” (Takeda Chemical Industries, Ltd., priority 1998, dated 2005).

A word on the IC50: it is the concentration that inhibits the measured activity by half. By inhibition is commonly meant the drop in the measured response relative to a control, in per cent.

One assay has as its target T1, recombinant human MMP-13 (Homo sapiens, UniProt P45452).
T1 construct: made in house; host or cells: baculovirus (pBlueBac4 / Bac-N-Blue; virus made in Sf9), expressed in High-Five insect cells; culture supernatant used
As to the kind of experiment: Assay of MMP-13 inhibiting activity (fluorogenic peptide substrate). Type of assay: biochemical. The note with it: Table 1; 37° C., 2 hours. In short, it runs like this: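 Baculovirus-expressed human MMP-13 (High-Five cell supernatant) in pH 7.5 Tris buffer with 200 mM NaCl, 20 mM CaCl2, 0.1% Brij 35, 1 mM 2-mercaptoethanol; reaction started with 40 μM (stock) MOCAc-PLGL-A2pr(DNP)-AR-NH2, 2 h at 37 °C, stopped at pH 3.0. Fluorescence 330/405 nm; IC50 versus no-compound control.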
For “3-Mercapto-1-(4-phenoxybenzylpyrrolidine-2,5-dione [Example 1]”, the IC50 came out at 5 nM.

With `CC(=O)SCC1CC(=O)N(Cc2ccc(Oc3ccccc3)cc2)C1=O` (stereo not drawn) [Example 10, 3-Acethylmethyl-1-(4-phenoxybenzyl)pyrrolidine-2,5-dione], the IC50 came out at 400 nM.

Still in this assay, the particulars now being: Table 2; 37° C., 2 hours.
`CC(=O)SC1C(=O)N(Cc2ccc(Oc3ccccc3)cc2)C(=O)C1C` (stereo not drawn) [Example 7, 3-Acetylthio-4-methyl-1-(4-phenoxybenzyl)pyrrolidine-2,5-dione]: the 50% inhibitory concentration (IC50) stood at 50 nM.

With `COC(=O)CCSC1C(=O)N(Cc2ccc(Oc3ccccc3)cc2)C(=O)C1O` (stereo not drawn) [Example 9, 3-Hydroxy-4-[2-(methoxycarbonyl)ethylthio]-1-(4-phenoxybenzyl)pyrrolidine-2,5-dione], the IC50 worked out at 1000 nM.

The assay is the same for the next values; noted with them: Table 3; 37° C., 2 hours.
With `O=C(Cc1ccccc1)SC1CC(=O)N(Cc2ccc(Oc3ccccc3)cc2)C1` (stereo not drawn) [Example 68, S-[5-oxo-1-(4-phenoxybenzyl)-3-pyrrolidinyl]2-phenylethanethioate], the concentration for half-maximal inhibition (IC50) worked out at 2 nM.

Turning to `O=C(O)CS[C@@H]1CC(=O)N(Cc2ccc(Oc3ccccc3)cc2)C1` [Example 91, 2-{[(3R)-5-Oxo-1-(4-phenoxybenzyl)pyrrolidinyl]sulfanyl}acetic acid], the concentration for half-maximal inhibition (IC50) was determined as 1000 nM.

Regarding `CNC(=S)S[C@@H]1CC(=O)N(Cc2ccc(Oc3ccccc3)cc2)C1` [Example 76], the IC50 was 1.2 nM.

In the case of `CCCCCCSS[C@@H]1CC(=O)N(Cc2ccc(Oc3ccccc3)cc2)C1` [Example 80, (4R)-4-(Hexyldisulfanyl)-1-(4-phenoxybenzyl)-2-pyrrolidinone], the IC50 came out at 1000 nM.

Consider `O=C1C[C@H](S)CN1Cc1ccc(Oc2ccccc2)cc1` [Example 22, (S)-4-Mercapto-1-(4-phenoxybenzyl)pyrrolidin-2-one], for which the IC50 amounted to 300 nM.

For the molecule `CCOC(=O)CCS[C@@H]1CC(=O)N(Cc2ccc(Oc3ccccc3)cc2)C1` [Example 92, Ethyl 3-{[(3R)-5-oxo-1-(4-phenoxybenzyl)pyrrolidinyl]sulfanyl}propanoate], the 50% inhibitory concentration (IC50) stood at 2000 nM.

`NC(=O)S[C@@H]1CC(=O)N(Cc2ccc(Oc3ccccc3)cc2)C1` [Example 49, S-[(3R)-5-oxo-1-(4-phenoxybenzyl)pyrrolidinyl]thiocarbamate]: the IC50 came to 0.65 nM.

Turning to `CCOC(=O)CNC(=O)S[C@@H]1CC(=O)N(Cc2ccc(Oc3ccccc3)cc2)C1` [Example 58, Ethyl [({[(3R)-5-oxo-1-(4-phenoxybenzyl)pyrrolidinyl]sulfanyl}carbonyl)amino]acetate], the IC50 worked out at 0.7 nM.

For the molecule `O=C(Cc1ccc(Cl)cc1)SC1CC(=O)N(Cc2ccc(Oc3ccccc3)cc2)C1` (stereo not drawn) [Example 69, S-[5-oxo-1-(4-phenoxybenzyl)-3-pyrrolidinyl]-(4-chlorophenyl)ethanethioate], the IC50 is 20 nM.

Take `CC(C)(C)C(=O)NCS[C@@H]1CC(=O)N(Cc2ccc(Oc3ccccc3)cc2)C1` [Example 101, 2,2-Dimethyl-N-({[(3R)-5-oxo-1-(4-phenoxybenzyl)pyrrolidinyl]sulfanyl}methyl)propanamide]: the IC50 was determined as 3000 nM.

The assay is the same for the next values; noted with them: Table 4; 37° C., 2 hours.
In the case of `CC(=O)SC1CC(=O)N(Cc2cccc(Oc3ccccc3)c2)C1` (stereo not drawn) [Example 40, 4-Acetylthio-1-(3-phenoxybenzyl)pyrrolidin-2-one], the concentration for half-maximal inhibition (IC50) was 1000 nM.

The assay is the same for the next values; noted with them: Table 5; 37° C., 2 hours.
Regarding `O=C1C[C@@H](S)[C@H](COCc2ccccc2)N1Cc1ccc(Oc2ccccc2)cc1` (relative stereo) [Example 39, Trans-5-benzyloxymethyl-4-mercapto-1-(4-phenoxybenzyl)pyrrolidin-2-one], the IC50 was 9 nM.

`CC(=O)S[C@H]1CC(=O)N(Cc2ccc(Oc3ccccc3)cc2)[C@H]1C` [Example 175, (4S,5S)-4-Acetylthio-5-methyl-1-(4-phenoxybenzyl)pyrrolidin-2-one]: the IC50 was found to be 100 nM.

For the molecule `C[C@H]1[C@H](S)CC(=O)N1Cc1ccc(Oc2ccccc2)cc1` [Example 178, (4R,5S)-4-Mercapto-5-methyl-1-(4-phenoxybenzyl)pyrrolidin-2-one], the concentration for half-maximal inhibition (IC50) is 5 nM.

As to `CC(=O)S[C@@H]1CC(=O)N(Cc2ccc(Oc3ccccc3)cc2)[C@H]1C(=O)NCCO` (relative stereo) [Example 189, trans-4-Acetylthio-5-(2-hydroxyethyl)aminocarbonyl-1-(4-phenoxybenzyl)pyrrolidin-2-one], the half-inhibitory concentration (IC50) worked out at 89 nM.

Take `O=C(NCc1ccncc1)[C@H]1[C@H](S)CC(=O)N1Cc1ccc(Oc2ccccc2)cc1` (relative stereo) [Example 192, trans-4-Mercapto-5-(4-pyridylmethyl)aminocarbonyl-1-(4-phenoxybenzyl)pyrrolidin-2-one]: the 50% inhibitory concentration (IC50) was found to be 19 nM.

Staying with this assay, now noted: Table 8; 37° C., 2 hours.
Regarding `O=C1C(S)CCN1Cc1ccc(Oc2ccccc2)cc1` (stereo not drawn) [Example 29, 3-Mercapto-1-(4-phenoxybenzyl)pyrrolidin-2-one], the IC50 was found to be 2000 nM.

`CC(=O)SC1CCN(Cc2ccc(Oc3ccccc3)cc2)C1=O` (stereo not drawn) [Example 27, 3-Acetylthio-1-(4-phenoxybenzyl)pyrrolidin-2-one]: the IC50 was > 10000 nM.

The assay is the same for the next values; noted with them: Table 9; 37° C., 2 hours.
As to `O=C1C[C@@H](S)CN1Cc1ccc(Oc2ccc(Cl)cc2)cc1` [Example 126, (R)-4-Mercapto-1-[4-(4-chlorophenoxy)benzyl]pyrrolidin-2-one], the IC50 is 1.7 nM.

As for `CC(=O)SC1CC(=O)N(Cc2ccc(Oc3ccc(C(N)=O)cc3)cc2)C1` (stereo not drawn) [Example 134, 4-Acetylthio-1-[4-(4′-aminocarbonylphenoxy)benzyl]pyrrolidin-2-one], the half-maximal inhibitory concentration (IC50) was found to be 29 nM.

Take `CC(=O)SC1CC(=O)N(Cc2ccc(Oc3ccc(F)cc3F)cc2)C1` (stereo not drawn) [Example 119, 4-Acetylthio-1-[4-(2′,4′-difluorophenoxy)benzyl]pyrrolidin-2-one]: the IC50 was determined as 10 nM.

For the molecule `CCc1ccc(Oc2ccc(CN3C[C@H](SC(C)=O)CC3=O)cc2)cc1` [Example 124, (R)-4-Acethylthio-1-[4-(4′-ethylphenoxy)benzyl]pyrrolidin-2-one], the IC50 came to 7 nM.

Consider `CC(=O)SC1CC(=O)N(Cc2ccc(Oc3ccc(Cl)cc3)cc2)C1` (stereo not drawn) [Example 32, 4-Acetylthio-1-(4-(4′-chlorophenoxy)benzyl)pyrrolidin-2-one], for which the IC50 amounted to 8 nM.

Regarding `O=C1CC(S)CN1Cc1ccc(Oc2ccc(F)cc2)cc1` (stereo not drawn) [Example 31, 4-Mercapto-1-(4-(4′-fluorophenoxy)benzyl)pyrrolidin-2-one], the IC50 amounted to 3 nM.

For the molecule `CC(=O)S[C@@H]1CC(=O)N(Cc2ccc(Oc3ccc(F)cc3)cc2)C1` [Example 117, (R)-4-Acethylthio-1-[4-(4′-fluorophenoxy)benzyl]pyrrolidin-2-one], the half-inhibitory concentration (IC50) worked out at 7 nM.

As to `CC(=O)S[C@@H]1CC(=O)N(Cc2ccc(Oc3ccc(C)cc3)cc2)C1` [Example 123, (R)-4-Acethylthio-1-[4-(4′-methylphenoxy)benzyl]pyrrolidin-2-one], the half-inhibitory concentration (IC50) came to 8.9 nM.

For the molecule `CC(=O)SC1CC(=O)N(Cc2ccc(Oc3cccc(F)c3)cc2)C1` (stereo not drawn) [Example 114, 4-Acetylthio-1-[4-(3′-fluorophenoxy)benzyl]pyrrolidin-2-one], the IC50 was 10 nM.

In the case of `CC(=O)SC1CC(=O)N(Cc2ccc(Oc3ccc(OC(F)(F)F)cc3)cc2)C1` (stereo not drawn) [Example 140, 4-Acetylthio-1-{4-[4′-(trifluoromethoxy)phenoxy]benzyl}pyrrolidin-2-one], the half-inhibitory concentration (IC50) stood at 20 nM.

On to `CCOC(=O)c1ccc(Oc2ccc(CN3CC(S)CC3=O)cc2)cc1` (stereo not drawn) [Example 132, 4-Mercapto-1-[4-(4′-ethoxycarbonylphenoxy)benzyl]pyrrolidin-2-one], for which the IC50 was determined as 3.3 nM.

Staying with this assay, now noted: Table 10; 37° C., 2 hours.
Turning to `CC(=O)SC1CC(=O)N(Cc2ccc(Sc3ccccc3)cc2)C1` (stereo not drawn) [Example 154, 4-Acetylthio-1-(4-phenylthiobenzyl)pyrrolidin-2-one], the IC50 is 20 nM.

`CC(=O)SC1CC(=O)N(Cc2ccc(C(=O)c3ccccc3)cc2)C1` (stereo not drawn) [Example 161, 4-Acetylthio-1-(4-benzoylbenzyl)pyrrolidin-2-one]: the IC50 is 200 nM.

The same assay, now with this note: Table 11; 37° C., 2 hours.
For the molecule `CC(=O)SC1CC(=O)N(Cc2ccc(Oc3ccccn3)cc2)C1` (stereo not drawn) [Example 156, 4-Acetylthio-1-[4-(2′-pyridyloxy)benzyl]pyrrolidin-2-one], the half-maximal inhibitory concentration (IC50) worked out at 700 nM.

The same assay, now with this note: Table 12; 37° C., 2 hours.
As for “S-[2-Oxo-1-(4-phenoxybenzyl)-4-piperidinyl]ethanethioate [Example 110]”, the half-maximal inhibitory concentration (IC50) turned out to be 250 nM.

Still in this assay, the particulars now being: Table 13; 37° C., 2 hours.
Consider `O=C(SC1CCC(=O)N(Cc2ccc(Oc3ccccc3)cc2)C1=O)c1ccccc1` (stereo not drawn) [Example 44, 3-Benzoylthio-1-(4-phenoxybenzyl)piperidine-2,6-dione], for which the IC50 stood at 10 nM.

Take `CC(=O)SC1CCC(=O)N(Cc2ccc(Oc3ccc(Br)cc3)cc2)C1=O` (stereo not drawn) [Example 43, 3-Acetylthio-1-[4-(4-bromophenoxy)benzyl]piperidine-2,6-dione]: the half-inhibitory concentration (IC50) was found to be 20 nM.

The next assay concerns nasal cartilage. As to the kind of experiment: Assay of cartilage collagen degradation inhibiting activity (IL-1β-stimulated nasal cartilage pieces, hydroxyproline release). The note with it: 504 h; at 1 μM of compound; human recombinant IL-1β; incubation 3 weeks. The class given is cell-based, cow. As to the method:
A nasal cartilage was isolated aseptically from a sacrificed cow, and preincubated in a Dulbecco's modified eagle medium containing 5% heat-inactivated fetal bovine serum, 100 units/ml of penicillin G and 100 units/ml of streptomycin at 37° C. under 5% CO2 and 95% air for 3 days. After completing the preincubation, a cartilage piece weighing about 10 mg was prepared and placed in 100 μl of a medium supplemented with a human recombinant interleukin-1β (IL-1β: *ZENZYME*) and a test compound. After incubating for 3 weeks in total during which the culture medium was replaced on the weekly basis, the total amount of hydroxyproline liberated into the culture medium and the amount of hydroxyproline remaining in the cartilage piece were determined and % collagen degradation was calculated. The collagen degradation inhibiting activity of a test compound was determined according to the following equation. Collagen degradation inhibiting activity (%)=100×(Ci−Cs)/(Ci−Cc) Equation: wherein Cc is % collagen degradation in the absence of both of IL-1β and compound, Ci is % collagen degradation in the presence of IL-1β, and Cs is a % collagen degradation in the presence of both of IL-1β and a test compound.
Consider `O=C1C[C@@H](S)CN1Cc1ccc(Oc2ccc(Cl)cc2)cc1` [Example 126, (R)-4-Mercapto-1-[4-(4-chlorophenoxy)benzyl]pyrrolidin-2-one], for which the inhibition at 1 µM stood at 70%.

Turning to `O=C1C[C@@H](S)[C@H](COCc2ccccc2)N1Cc1ccc(Oc2ccccc2)cc1` (relative stereo) [Example 39, Trans-5-benzyloxymethyl-4-mercapto-1-(4-phenoxybenzyl)pyrrolidin-2-one], the inhibition at 1 µM was determined as 39%.

With `CC(=O)SC1CC(=O)N(Cc2ccc(Oc3ccccn3)cc2)C1` (stereo not drawn) [Example 156, 4-Acetylthio-1-[4-(2′-pyridyloxy)benzyl]pyrrolidin-2-one], the inhibition at 1 µM worked out at 84%.
